Experimental data taken from US11945801B2, “Bicyclic aza compounds as muscarinic M1 and/or M4 receptor agonists” (Heptares Therapeutics Limited, priority 2018, dated 2024).

Legend:
Assay type in all cases: cell-based
[1] = target: T1, human muscarinic M1 receptor (Homo sapiens, UniProt P11229); assay: Alphascreen Surefire phospho-ERK1/2 functional assay, M1; conditions: for % Emax cf. ACh, M1 / EC50: CHO cells stably expressing human M1; for % Emax cf. ACh, M1 / Emax: Emax relative to ACh; for EC50: agonist 5 min, 37° C., read-out: pEC50 M1 (converted); for Emax: CHO, read-out: % Emax cf. ACh, M1, CHO cells stably expressing human M1
T1 sequence (P11229 1-460): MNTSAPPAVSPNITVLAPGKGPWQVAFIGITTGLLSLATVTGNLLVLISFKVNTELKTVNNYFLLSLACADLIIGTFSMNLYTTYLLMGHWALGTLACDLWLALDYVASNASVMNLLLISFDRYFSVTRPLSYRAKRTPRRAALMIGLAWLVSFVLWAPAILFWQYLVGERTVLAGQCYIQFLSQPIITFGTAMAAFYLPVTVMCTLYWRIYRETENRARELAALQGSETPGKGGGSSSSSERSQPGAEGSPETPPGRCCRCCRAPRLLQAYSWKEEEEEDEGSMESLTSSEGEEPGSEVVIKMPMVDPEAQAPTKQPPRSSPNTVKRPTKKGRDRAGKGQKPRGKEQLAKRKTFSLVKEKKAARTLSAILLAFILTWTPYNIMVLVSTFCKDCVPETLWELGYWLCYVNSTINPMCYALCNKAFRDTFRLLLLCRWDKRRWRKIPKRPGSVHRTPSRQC
Protocol: (§1) ERK1/2 phosphorylation is a downstream consequence of both Gq/11 and Gi/o protein coupled receptor activation, making it highly suitable for the assessment of M1, M3 (Gq/11 coupled) and M2, M4 receptors (Gi/o coupled), rather than using different assay formats for different receptor subtypes. CHO cells stably expressing the human muscarinic M1, M2, M3 or M4 receptor were plated (25K/well) onto 96-well tissue culture plates in MEM-alpha+10% dialysed FBS. Once adhered, cells were serum-starved overnight. Agonist stimulation was performed by the addition of 5 μL agonist to the cells for 5 min (37° C.). Media was removed and 50 μL of lysis buffer added. After […], a 4 μL sample was transferred to 384-well plate and 7 μL of detection mixture added.
(§2) Isomer assignment (Isomer 1, Isomer 2, etc.) is based on the retention time of the compound using the separation technique that was performed in the final purification step. By implication, this could be reversed phase HPLC, chiral HPLC or chiral SFC retention time, and this will vary from compound to compound.

[2] = target: T2, human muscarinic M2 receptor (Homo sapiens, UniProt P08172); assay: Alphascreen Surefire phospho-ERK1/2 functional assay, M2; conditions: for EC50: CHO cells stably expressing human M2, agonist 5 min, 37° C., read-out: pEC50 M2 (converted); for Emax: CHO, read-out: % Emax cf. ACh, M2, CHO cells stably expressing human M2, Emax relative to ACh
T2 sequence (P08172 1-466): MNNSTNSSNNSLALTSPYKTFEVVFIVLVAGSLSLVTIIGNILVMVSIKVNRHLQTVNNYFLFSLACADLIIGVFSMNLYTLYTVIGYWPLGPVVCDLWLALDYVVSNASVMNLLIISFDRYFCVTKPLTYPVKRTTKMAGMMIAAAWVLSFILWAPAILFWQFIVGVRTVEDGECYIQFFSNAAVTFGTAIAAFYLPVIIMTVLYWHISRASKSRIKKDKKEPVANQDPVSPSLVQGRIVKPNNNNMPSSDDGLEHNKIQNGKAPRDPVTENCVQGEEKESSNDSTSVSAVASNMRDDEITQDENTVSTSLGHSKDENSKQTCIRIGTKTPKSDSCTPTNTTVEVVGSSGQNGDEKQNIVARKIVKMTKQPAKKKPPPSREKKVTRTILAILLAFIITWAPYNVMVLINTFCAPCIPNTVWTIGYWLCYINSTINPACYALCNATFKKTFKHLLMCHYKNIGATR
Protocol: as §1, §2

[3] = target: T3, human muscarinic M3 receptor (Homo sapiens, UniProt P20309); assay: Alphascreen Surefire phospho-ERK1/2 functional assay, M3; conditions: for EC50: CHO cells stably expressing human M3, agonist 5 min, 37° C., read-out: pEC50 M3 (converted); for Emax: CHO, read-out: % Emax cf. ACh, M3, CHO cells stably expressing human M3, Emax relative to ACh
T3 construct: expressed in transfected cells
Protocol: as §1, §2

[4] = target: T4, human muscarinic M4 receptor (Homo sapiens, UniProt P08173); assay: Alphascreen Surefire phospho-ERK1/2 functional assay, M4; conditions: for % Emax cf. ACh, M4 / EC50: CHO cells stably expressing human M4; for % Emax cf. ACh, M4 / Emax: Emax relative to ACh; for EC50: agonist 5 min, 37° C., read-out: pEC50 M4 (converted); for Emax: CHO, read-out: % Emax cf. ACh, M4, CHO cells stably expressing human M4
T4 construct: expressed in transfected cells
T4 sequence (P08173 1-479): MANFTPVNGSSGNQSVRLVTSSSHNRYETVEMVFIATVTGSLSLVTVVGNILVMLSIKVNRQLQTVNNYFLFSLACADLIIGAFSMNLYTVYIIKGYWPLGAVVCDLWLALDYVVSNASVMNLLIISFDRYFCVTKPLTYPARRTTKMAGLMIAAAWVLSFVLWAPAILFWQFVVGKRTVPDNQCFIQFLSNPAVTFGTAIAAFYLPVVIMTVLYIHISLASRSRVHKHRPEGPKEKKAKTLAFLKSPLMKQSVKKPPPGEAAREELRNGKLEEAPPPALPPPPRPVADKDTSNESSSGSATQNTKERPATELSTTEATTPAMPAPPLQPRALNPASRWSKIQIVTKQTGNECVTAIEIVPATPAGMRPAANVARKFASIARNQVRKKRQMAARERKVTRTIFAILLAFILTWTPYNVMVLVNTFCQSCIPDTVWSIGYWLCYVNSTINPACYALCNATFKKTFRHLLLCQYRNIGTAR
Protocol: as §1, §2

T3 sequence (P20309 whole entry): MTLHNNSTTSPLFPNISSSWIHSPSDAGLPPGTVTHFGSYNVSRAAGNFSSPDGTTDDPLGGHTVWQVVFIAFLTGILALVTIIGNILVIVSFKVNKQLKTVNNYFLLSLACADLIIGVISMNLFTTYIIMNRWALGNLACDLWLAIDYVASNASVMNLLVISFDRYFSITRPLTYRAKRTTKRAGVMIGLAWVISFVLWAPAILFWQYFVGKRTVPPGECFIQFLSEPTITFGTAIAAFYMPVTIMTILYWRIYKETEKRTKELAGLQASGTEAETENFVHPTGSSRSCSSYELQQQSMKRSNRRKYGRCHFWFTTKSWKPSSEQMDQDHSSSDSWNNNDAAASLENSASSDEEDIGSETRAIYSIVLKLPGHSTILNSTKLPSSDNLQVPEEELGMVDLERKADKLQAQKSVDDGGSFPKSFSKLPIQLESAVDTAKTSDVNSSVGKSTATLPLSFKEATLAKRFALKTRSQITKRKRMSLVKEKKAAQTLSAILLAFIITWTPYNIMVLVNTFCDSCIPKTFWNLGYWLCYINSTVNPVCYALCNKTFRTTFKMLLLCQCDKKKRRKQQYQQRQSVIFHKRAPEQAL

Row | Compound | % Emax cf. ACh, M1 [1] [%] | EC50 [1] [nM] | EC50 [2] [nM] | Emax [2] [%] | EC50 [3] [nM] | Emax [3] [%] | % Emax cf. ACh, M4 [4] [%] | EC50 [4] [nM] | Emax [1] [%] | Emax [4] [%] | % Emax cf. ACh, M1 ([1]; listed as 4-9 Isomer 1) [%] | % Emax cf. ACh, M4 ([4]; listed as 4-9 Isomer 1) [%]
1 | CCN(CC)C(=O)OC1CN(C2CCC3(C2)CN(C(=O)OC)C3)C1 (single isomer, unassigned) [Example 4-6 Isomer 2, Methyl 6-(3-((diethylcarbamoyl)oxy)azetidin-1-yl)-2-azaspiro[3.4]octane-2-carboxylate] | 93 | 214 | > 20000 | 9 | > 20000 | 11 | 32 | 339 |  |  |  | 
2 | CCOC(=O)N1CC2(CCC(N3CC(OC(=O)N4CCCC4)C3)C2)C1 (single isomer, unassigned) [Example 4-7 Isomer 1, Ethyl 6-(3-((pyrrolidine-1-carbonyl)oxy)azetidin-1-yl)-2-azaspiro[3.4]octane-2-carboxylate] |  | 75.9 | > 20000 | 7 | > 20000 | 8 |  | 49 | 51 | 29 |  | 
3 | CCOC(=O)N1CC2(CCC(N3CC(OC(=O)N4CCOCC4)C3)C2)C1 (single isomer, unassigned) [Example 4-8 Isomer 1, 1-(2-(Ethoxycarbonyl)-2-azaspiro[3.4]octan-6-yl)azetidin-3-yl morpholine-4-carboxylate] |  | 57.5 | > 20000 | 2 | > 20000 | 4 |  | > 20000 | 72 | 14 |  | 
4 | CCOC(=O)N1CC2(CCC(N3CC(OC(=O)N4CCCOCC4)C3)C2)C1 (single isomer, unassigned) [Example 4-9 Isomer 1, 1-(2-(Ethoxycarbonyl)-2-azaspiro[3.4]octan-6-yl)azetidin-3-yl 1,4-oxazepane-4-carboxylate] |  | 57.5 | > 20000 | 3 | > 20000 | 2 |  | > 20000 |  |  | 37 | 7
5 | CCOC(=O)N1CC2CCC1CC2N1CC(OC(=O)N2CCCCCC2)C1 (single isomer, unassigned) [Example 6-4 Isomer 1, Ethyl 5-(3-((azepane-1-carbonyl)oxy)azetidin-1-yl)-2-azabicyclo[2.2.2]octane-2-carboxylate] |  | 117 | > 20000 | 9 | > 20000 | 5 |  | 490 | 86 | 50 |  | 
